One data set relates to certain wounds. Briefly: Effect of unsaturated fatty acids on wounds. Details: species or system patients. As to conditions: in vivo.
The subject of another data set is wounds and skin damage. Briefly: Treatment effect of palmitic acid and behenic acid alone versus combined.

As for `CCCCC/C=C\C/C=C\C/C=C\C/C=C\CCCC(=O)O` [arachidonic acid], the “inflammation to certain wounds, causing pain in some patients” value in the data set on certain wounds was “harmful inflammation”. Take `CCCCCCCCCCCCCCCCCCCCCC(=O)O` [behenic acid]: in the data set with wounds and skin damage, the “treatment effect of either acid alone” value is listed as “less significant”. As to `CCCCC/C=C\C/C=C\CCCCCCCC(=O)O` [linoleic acid], the “inflammation to certain wounds, causing pain in some patients” value in the data set on certain wounds was “harmful inflammation”. For the compound `CCCCCCCCCCCCCCCC(=O)O` [palmitic acid], in the data set with wounds and skin damage, the “treatment effect of either acid alone” value is “less significant”.

For the origin of these results see patent US11696907B2, “Wound healing composition” (WINERGEN TECHNOLOGIES INC., LTD., priority 2016, dated 2023).
